# Measurements from patent publication US12390423B2 (priority 2019, dated 2025).
# Columns and labels:
# [1] = system: pyruvate dehydrogenase (PDH); assay: Pyruvate dehydrogenase (PDH) activity assay, gastrocnemius muscle lysates of DIO mice; format: in vivo, C57BL/6J mice; settings: ad libitum HFD mice, AvoB 100 mg/kg b.w. twice weekly, endpoint
# Protocol: After mice were euthanized, muscle tissues were freeze-clamped and flash-frozen in liquid nitrogen. The PDH activity from flash-frozen whole gastrocnemius muscle lysates was measured using a colorimetric microplate assay kit (ab109902, Abcam, Cambridge, MA, USA) following the manufacturer's protocol and as previously described (see reference number 12). Briefly, PDH proteins from whole gastrocnemius muscle lysates (lysed in the presence of 10 mM sodium fluoride (NaF) preserve the phosphorylated status of PDH or to determine native PDH activity as a result of HFD feeding) were immunocaptured on a microplate by loading equal amounts of protein for each sample. PDH activity was then determined spectrophotometrically by monitoring the reduction of NAD+ to NADH, coupled to the reduction of a reporter dye at an absorbance of 450 nm.
# C2C12 myotubes [2] = assay: Fatty acid oxidation ([1-14C]-palmitate) in C2C12 myotubes; format: cell-based, mouse; settings: 25 μM AvoB, 0.5 mM palmitate-BSA/1 mM L-carnitine, 24 h
# Protocol: FAO in cell lines was determined using established methods. […] [1-^14C]-palmitate was prepared and applied to cells as follows: purchased stock supplied in ethanol (PerkinElmer, MA, USA) was dried in vacuo and then re-suspended in a solution containing unlabeled carrier in BSA to yield a mixture of 7% BSA [w/v], 2.5 mM palmitate with [1-^14C]-palmitate at a final concentration of 10 μCi/mL. Following a 16 hour incubation at 37° C., the solution containing radiolabeled palmitate was diluted with respective serum free cell culture media (low glucose RPMI media for INS-1 (832/13) cells and low glucose DMEM for C2C12 myotubes) containing 1 mM L-carnitine to a final concentration of 0.3% BSA, 100 μM palmitate, and 0.4 μCi/mL [1-^14C]-palmitate. Following incubation of treated cells with [1-^14C]-palmitate, 400 μL of well media was transferred to acidification vials containing perchloric acid and capped with CO2 filter traps impregnated with 1M NaOH. […] The CO2 trap was transferred to scintillation vials containing 4 mL of scintillation fluid and complete FAO was quantified using a Tri-Carb 2910 TR liquid scintillation analyzer (PerkinElmer). The amount of radioactivity in the media was also determined after pelleting cells and debris (14,000×g, 10 min); this quantified acid soluble metabolites (ASMs), an indirect measure of incomplete FAO.
# C2C12 myotubes [3] = assay: Glucose oxidation and 2-NBDG glucose uptake in C2C12 myotubes; format: cell-based, mouse
# Protocol: C2C12 myotubes and INS-1 (832/13) cells treated as in the FAO assays described above and then incubated with D-[^14C(U)]-glucose (0.58 μC/mL) and unlabeled glucose (final glucose concentration 200 μM) for 4 h subsequent to which [^14C]—CO2 (representing complete glucose oxidation) and ASMs (representing incomplete glucose oxidation) were captured and quantified as described in the FAO method. For C2C12 myotubes, glucose oxidation and uptake was measured with and without a 30 min pre-incubation with 100 nM insulin to determine basal and insulin-mediated glucose oxidation or uptake, respectively.
# To measure glucose uptake in C2C12 myotubes, a fluorescent D-glucose analog 2-(N-[7-nitrobenz-2-oxa-1,3-diazol-4-yl]amino)-2-deoxy-D-glucose (2-NBDG) was utilized. Briefly, myotubes were treated for 24 h with test compound after which they were washed twice with PBS and starved for 1 h in serum and glucose free DMEM. Following starvation, 100 nM insulin was added for 30 min after which 60 μM 2-NBDG was added to each well and allowed to incubate for 30 min. The 2-NBDG uptake reaction was then stopped by removing the incubation medium and washing the cells twice with PBS after which the cells were trypsinized and collected for flow cytometry analysis (Guava 8HT; EMD Millipore, Billerica, MA).
# C2C12 myotubes [4] = assay: Cellular ATP content in C2C12 myotubes; format: cell-based, mouse; settings: 0.5 mM palmitate 24 h, AVO 25 μM, DCA 1 mM, TRI 25 μM
# Protocol: Total cellular ATP content was determined using the ATP bioluminescent assay kit (Calbiochem, 119107). Briefly, cells were seeded in white walled 96-well plates (1.2×10^4 cells/well for INS-1 and 2×10^4 cells/well for C2C12) and treated for 24 h (C2C12 cells were differentiated for 5 days prior to treatments whereas INS-1 cells were treated 24 h after seeding). After treatment, culture media was removed, and cells were lysed with nucleotide releasing buffer with gentle shaking for 5 min. ATP monitoring enzyme was then added to cell lysates and plates and luminescence was read in a Biotek Synergy HT spectrophotometer (Biotek; Winooski, VT).
substance,measurement,setting,value
avocatin B [AvoB],Native PDH activity in gastrocnemius muscle,[1],"restored to that of lean, STD mice"
same,Complete FAO ([1-14C]-palmitate oxidation to CO2),C2C12 myotubes [2],inhibited complete FAO
same,Incomplete FAO (ASM levels),C2C12 myotubes [2],did not increase incomplete FAO
same,Insulin stimulated glucose uptake (2-NDBG),"C2C12 myotubes [3]; 25 μM AVO, 0.5 mM palmitate 24 h, vs palmitate only",increased glucose uptake compared to palmitate only treated cells
same,Basal and insulin stimulated glucose oxidation (D-[14C(U)]-glucose to CO2),"C2C12 myotubes [3]; 25 μM AvoB, excess palmitate, 24 h",increased basal and insulin stimulated glucose oxidation
same,Total cellular ATP content,C2C12 myotubes [4],restored cellular ATP content to that of control cells
